Read-outs that look alike come from different tables or passages of the source.
Experiments:
[1] = test system: diphtheria toxin receptor-inducible transgenic mice; assay type: in vivo, mouse
APP/PS1 transgenic mice [2] = assay: Cognitive tests in APP/PS1 transgenic mice; assay type: in vivo, mouse
in vivo = assay: in vivo; set-up: species or system SD Rat; settings: rat
Experimental: Next, we tested whether pharmacological inhibition of MAOB facilitates recovery after SCI. […] The pharmacokinetic (PK) analysis of KDS2010 was performed in mice, rats, and nonhuman primates. […] We substituted the mouse SCI model with a rat SCI model, which has been reported to be better for pharmacological evaluation and closer to human SCI.[21] We performed Basso, Beattie and Bresnahan (BBB) locomotor test[22] to assess the functional recovery once a week for a total of 11 weeks (Fig. 2a). […] In addition to the BBB locomotor test, we performed the ladder rung test by measuring the percentage of hindlimb steps without slipping as rats walked along a horizontal ladder[23] (Fig. 2d, e). […] We then assessed the tissue recovery using EC staining on cross and longitudinal sections of the spinal cord. […]
In a pharmacokinetic study, plasma PK parameters were measured after a single oral administration of […]
dose group and at 4 to 6 hours after administration in the 30 mg/kg dose group. In the elimination phase, the […]
Systemic exposure (AUClast) to the test substance was 30587 and 80770 ng*hr/mL, respectively.
At this time, AUC0-inf was […]
time, AUC0-inf was 192000 ng eq.h/mL. […]

[3] = Preclinical pharmacokinetics in mice; assay type: in vivo, mouse
rat SCI model = assay: TEM and TB staining of rat spinal cord (myelination); assay type: in vivo, Sprague-Dawley (SD) rats
Experimental: Spinal cord tissues were prefixed in Karnovsky’s fixative (2% glutaraldehyde, 2% paraformaldehyde in 0.1 M phosphate buffer) overnight at 4 °C. After postfixation in 1% osmium tetroxide (OsO4), the samples were dehydrated through a graded ethanol series and embedded in epoxy resin.
For TB staining, 250–300 nm semi-thin sections were obtained via an ultramicrotome (Leica Ultracut UCT, Leica Microsystems, Austria), stained with 0.5% toluidine blue, and imaged using a light microscope (Olympus IX71).
For TEM, 80–100 nm ultrathin sections were cut using a diamond knife (Diatome, Switzerland), mounted on 300-mesh Gilder grids, and stained with 6% uranyl acetate and lead citrate. Images were acquired using a transmission electron microscope (JEM 1011, JEOL, Tokyo, Japan) as previously described.
All TB and TEM analyses were performed on spinal cord tissues collected at the lesion epicenter, where myelination is most affected by injury.

APP/PS1 transgenic mice [4] = assay: Tonic GABA current, neuronal firing and DAO compensation in APP/PS1 mice; assay type: in vivo, mouse
[5] = human
Experimental: Protocol No. NB_KDS_ADP1_21 Confidential
Therapeutics in Adult Healthy Volunteers), with considering the safety factor and the result of the rat that […]
from the NOAEL calculated in the 4-week repeated toxicity test for rats and cynomolgus monkeys, the maximum recommended starting dose (MRSD) was calculated. As a result of converting 0.484 mg/kg, a value obtained by dividing this by the safety factor of 10, into a dose for a healthy adult weighing 60 kg, the MRSD was calculated to be 29.04 mg, and the initial administration dose was set to 30 mg. As a result of a single oral dose toxicity test in rats, 700 mg/kg was reported as a maximum tolerated dose (MTD), and it was calculated as 6774.2 mg/60kg when converted to a human equivalent dose (HED). Therefore, the set maximum dose is expected to be suitable in terms of safety.
Species NOAEL HED factor (Safety factor factor (Safety factor 1/30) […]
5.2.2. Duration of Dosing and Timepoints of Blood samplings/Urine collections
6 hours. In addition, considering that the Tmax of selegiline (ZELAPAR®) and safinamide (XADAGO®), which are similar drugs, are 0.75 hours and 1.83 to 2.83 hours, respectively, pharmacokinetic blood samplings before the estimated Tmax (about 2 hours) were included at 3 or more time points, and the pharmacokinetic blood […]

[6] = ICR mouse, 5 mg/kg single intravenous administration
[7] = in vivo, APP/PS1 mouse, 1 mg/kg single oral administration
[8] = in vivo, APP/PS1 mouse, 10 mg/kg single oral administration
[9] = in vivo, ICR mouse, 5 mg/kg single intravenous administration
[10] = in vivo, ICR mouse, 5 mg/kg single oral administration
[11] = in vivo, ICR mouse, 10 mg/kg single oral administration
[12] = in vivo, ICR mouse, 30 mg/kg single oral administration

SMILES: CS(=O)(=O)O.C[C@H](NCc1ccc(-c2ccc(C(F)(F)F)cc2)cc1)C(N)=O [KDS2010, (S)-2-(((4’-Trifluoromethylbiphenyl-4-yl)methyl)amino)propanamide methane-sulfonate]
- brain atrophy [1]: restored to the level of control group
- neurofilament (NF) [1]: reducing
- neuronal factors NeuN and MAP2 [1]: increasing
- survival [1]: increase in survival
- passive avoidance test (APP/PS1 transgenic mice [2]; 1 mg/kg and 10 mg/kg, repeated administration for 2 weeks, vs APP/PS1 control group): statistically significant cognitive function improvement effect
- Morris water maze test (APP/PS1 transgenic mice [2]; 10 mg/kg for 27 to 37 days): statistically significant improvement
- cognitive function (APP/PS1 transgenic mice [2]; 4-week repeated dosing test): statistically significant cognitive function effect
- AUC(0-inf) (in vivo; SD, iv, 1 mg/kg): 0.164 ± 0.0131 µg·h/mL
- Vd/F (in vivo; SD, iv, 1 mg/kg): 18.377 ± 2.743 L/kg
- half-life (in vivo; SD, iv, 1 mg/kg): 2.1 ± 0.3 h
- AUC(0-inf) (in vivo; SD, po, 9 mg/kg): 9.12 ± 4.13 µg·h/mL
- Vd/F (in vivo; SD, po, 9 mg/kg): 19.7 ± 4.34 L/kg
- half-life (in vivo; SD, po, 9 mg/kg): 14.6 ± 8.7 h
- AUC(0-t) (in vivo; Sprague-Dawley): ~3 µg·h/mL
- AUC (in vivo; Sprague-Dawley, po, 9 mg/kg): 3 µg·h/mL
- CL/F (in vivo; Sprague-Dawley, po, 9 mg/kg): 1.14 L/h/kg
- Cmax (in vivo; Sprague-Dawley, po, 9 mg/kg): 0.508 µg/mL
- half-life (in vivo; Sprague-Dawley, po, 9 mg/kg): 10.8 h
- CL/F [3, 6]: 1.708 ± 0.082 L/h/kg
- Vd/F [3, 6]: 10.439 ± 0.682 L/kg
- AUC(0-inf) [3, 7]: 1.13 ± 0.173 µg·h/mL
- half-life [3, 7]: 4.76 ± 0.43 h
- CL/F ([3]; in vivo, APP/PS1 mouse, 1 mg/kg single oral administration, read-out: CL/F (converted)): 0.897 L/h/kg
- Vd/F ([3]; in vivo, APP/PS1 mouse, 1 mg/kg single oral administration, read-out: Vd/F): 6.13 ± 0.767 L/kg
- AUC(0-inf) [3, 8]: 12.9 ± 0.741 µg·h/mL
- half-life [3, 8]: 5.7 ± 0.7 h
- CL/F ([3]; in vivo, APP/PS1 mouse, 10 mg/kg single oral administration, read-out: CL/F (converted)): 0.858 L/h/kg
- Vd/F ([3]; in vivo, APP/PS1 mouse, 10 mg/kg single oral administration, read-out: Vd/F): 7.01 ± 0.934 L/kg
- AUC(0-inf) [3, 9]: 3.59 ± 0.0717 µg·h/mL
- half-life [3, 9]: 4.2 ± 0.2 h
- AUC(0-inf) [3, 10]: 4.18 ± 0.1 µg·h/mL
- half-life [3, 10]: 4.2 ± 0.1 h
- CL/F ([3]; in vivo, ICR mouse, 5 mg/kg single oral administration, read-out: CL/F (converted)): 1.08 L/h/kg
- Vd/F ([3]; in vivo, ICR mouse, 5 mg/kg single oral administration, read-out: Vd/F): 6.6 ± 0.38 L/kg
- AUC(0-inf) [3, 11]: 7.92 ± 0.457 µg·h/mL
- half-life [3, 11]: 4.4 ± 0.2 h
- CL/F ([3]; in vivo, ICR mouse, 10 mg/kg single oral administration, read-out: CL/F (converted)): 1.32 L/h/kg
- Vd/F ([3]; in vivo, ICR mouse, 10 mg/kg single oral administration, read-out: Vd/F): 8.41 ± 0.843 L/kg
- AUC(0-inf) [3, 12]: 27.1 ± 1.09 µg·h/mL
- half-life [3, 12]: 4.3 ± 0.4 h
- CL/F ([3]; in vivo, ICR mouse, 30 mg/kg single oral administration, read-out: CL/F (converted)): 0.872 L/h/kg
- Vd/F ([3]; in vivo, ICR mouse, 30 mg/kg single oral administration, read-out: Vd/F): 5.45 ± 0.512 L/kg
- myelination (TEM) (rat SCI model; SCI + KDS 2w at PI 10w): fully recovered
- number of myelinated axons (rat SCI model; SCI + KDS 2w, PI 2-10w): gradual increase
- density of cavities (rat SCI model; SCI + KDS 2w, TB staining, PI 2-10w): gradual decrease
- tonic GABA current in granule cells of the dentate gyrus (APP/PS1 transgenic mice [4]; 1 mg/kg and 10 mg/kg vs induced control group): dose-dependent reduction
- neuronal firing (APP/PS1 transgenic mice [4]; 4-week repeated dosing test, at 2 weeks and 4 weeks): maintained at a level similar to that of the normal group
- DAO (diamine oxidase) compensatory mechanism (APP/PS1 transgenic mice [4]; long-term administration): did not induce
- half-life [5]: ~36 h
